The values below are quoted from earlier work in publication PMC7089779 (ChemMedChem, 2018).

By IC50 is commonly meant the concentration that gives 50% inhibition. The CC50 is the concentration that lowers cell viability or growth by half.

The subject of data set [1] is L. infantum axenic amastigotes. As to conditions: read-out: IC50 L. infantum axenic amastigotes; cited from earlier work.
In data set [2] the test system is T. brucei brucei trypomastigotes. As to conditions: cited from earlier work.
The next data set relates to HepG2 cell line. The conditions noted are these: read-out: CC50 HepG2; cited from earlier work.
Data set [3] concerns T. brucei brucei trypomastigotes wild type strain. The conditions noted are these: read-out: IC50 T. brucei brucei trypomastigotes wild type strain; cited from earlier work.
In data set [4] the test system is T. brucei brucei trypomastigotes NTR over-expressing strain. The conditions noted are these: wild type IC50 / NTR over-expressing IC50; cited from earlier work.
The conditions of data set [5]: cited from earlier work.

With `O=c1[nH]c2c([N+](=O)[O-])cccc2cc1Br` [Initial Hit, 3-bromo-8-nitroquinolin-2(1H)-one], the figures for the concentration for half-maximal inhibition (IC50) in data set [1], in data set [2] (read-out: IC50 T. brucei brucei trypomastigotes) and in data set [3] were 7.1 ± 1.5 µM, 1.9 ± 0.44 µM and 17.7 ± 1 µM, respectively. In addition, the “Antitrypanosomal selectivity Index” value in data set [2] (CC50 HepG2 / IC50 T. brucei brucei) is recorded as 48. Besides, the CC50 in the data set on HepG2 cell line was 92 ± 13 µM. Further, the Fold change in data set [4] was 4.5. Also, in data set [5], the “genotoxicity in the comet assay” value is reported as “not genotoxic”.
